Data published in patent US5002952A, “Readily absorbed pharmaceutical composition” (priority 1986, dated 1991).

Test system: L-1210 leukemia cells
Test: Antitumour activities (survival of BDF1 mice inoculated intraperitoneally with L-1210 leukemia cells, oral test drug)
Procedure: To BDF1 mice (male, 20-22 g), L-1210 leukemia cells were intraperitoneally inoculated in an amount of 1×10^6 cells/mouse. One day later and 4 days later, a test drug was orally administered. […] Therefore, in this test, Compound No. 3, and a 10 w/v% HCO60 solution were mixed, and pulverized in a wet system to obtain a liquid suspension, and the liquid suspension was administered to each mouse in an amount of 0.5 ml.
The activity was evaluated by a survival rate [T/C (%)]as compared with a control group to which a physiological saline was administered, and T/C values are shown in Table 2.

O=C(NC(=O)c1ccccc1[N+](=O)[O-])Nc1ccc(Oc2ncc(Br)cn2)c(Cl)c1 [Compound No. 3]
toxicity (T/C) (high dose region, composition wet pulverized with HCO60): less than 100%
antitumour activity (in words) (wet pulverized in the absence of HCO60, same dose): no substantial antitumour activity was observed
antitumour activity (in words) (wet pulverized together with the specific substance (HCO60)): adequate antitumour activity
